# Experimental data taken from publication PMC5224920, “Assessing the mechanism and therapeutic potential of modulators of the human Mediator complex-associated protein kinases” (eLife, 2016).
# System: 12 single or co-culture in vitro tissue models of primary cells
# Test: Culture/co-culture cell model panel, extracellular biomarkers (DiscoveRx); as to CCL2/MCP-1: reference of the scale not given here; as to CD141/Thrombomodulin: reference of the scale not given here; as to CD142/Tissue Factor: reference of the scale not given here; as to CXCL8/IL-8: reference of the scale not given here; as to CXCL9/MIG: reference of the scale not given here; as to M-CSF: reference of the scale not given here; as to Proliferation: reference of the scale not given here; as to SRB: reference of the scale not given here
# Type: cell-based, human
smiles,measurement,setting,value
Cc1n[nH]c2ncc(C(=O)N3CCC[C@H]3c3ccc(Cl)cc3)cc12 [CMPD4],CCL2/MCP-1,"3C, 1.00E4 nM",-0.095
same,CD54/ICAM-1,"3C, 1.00E4 nM",-0.015
same,CD62E/E-Selectin,"3C, 1.00E4 nM",0.054
same,CD87/uPAR,"3C, 1.00E4 nM",-0.432
same,CD106/VCAM-1,"3C, 1.00E4 nM",0.073
same,CD141/Thrombomodulin,"3C, 1.00E4 nM",0.088
same,CD142/Tissue Factor,"3C, 1.00E4 nM",0.112
same,CXCL8/IL-8,"3C, 1.00E4 nM",-0.381
same,CXCL9/MIG,"3C, 1.00E4 nM",-0.030
same,HLA-DR,"3C, 1.00E4 nM",-0.292
same,Proliferation,"3C, 1.00E4 nM",-0.144
same,SRB,"3C, 1.00E4 nM",-0.077
same,CCL2/MCP-1,"3C, 1.11E3 nM",-0.139
same,CD54/ICAM-1,"3C, 1.11E3 nM",-0.012
same,CD62E/E-Selectin,"3C, 1.11E3 nM",0.043
same,CD87/uPAR,"3C, 1.11E3 nM",-0.475
same,CD106/VCAM-1,"3C, 1.11E3 nM",0.074
same,CD141/Thrombomodulin,"3C, 1.11E3 nM",0.143
same,CD142/Tissue Factor,"3C, 1.11E3 nM",0.111
same,CXCL8/IL-8,"3C, 1.11E3 nM",-0.399
same,CXCL9/MIG,"3C, 1.11E3 nM",-0.035
same,HLA-DR,"3C, 1.11E3 nM",-0.213
same,Proliferation,"3C, 1.11E3 nM",-0.067
same,SRB,"3C, 1.11E3 nM",-0.088
same,CCL2/MCP-1,"3C, 1.23E2 nM",-0.155
same,CD54/ICAM-1,"3C, 1.23E2 nM",-0.013
same,CD62E/E-Selectin,"3C, 1.23E2 nM",0.033
same,CD87/uPAR,"3C, 1.23E2 nM",-0.463
same,CD106/VCAM-1,"3C, 1.23E2 nM",0.092
same,CD141/Thrombomodulin,"3C, 1.23E2 nM",0.134
same,CD142/Tissue Factor,"3C, 1.23E2 nM",0.145
same,CXCL8/IL-8,"3C, 1.23E2 nM",-0.289
same,CXCL9/MIG,"3C, 1.23E2 nM",-0.028
same,HLA-DR,"3C, 1.23E2 nM",-0.216
same,Proliferation,"3C, 1.23E2 nM",-0.036
same,SRB,"3C, 1.23E2 nM",-0.101
same,CCL2/MCP-1,"3C, 1.37E1 nM",-0.054
same,CD54/ICAM-1,"3C, 1.37E1 nM",-0.029
same,CD62E/E-Selectin,"3C, 1.37E1 nM",0.033
same,CD87/uPAR,"3C, 1.37E1 nM",-0.383
same,CD106/VCAM-1,"3C, 1.37E1 nM",0.060
same,CD141/Thrombomodulin,"3C, 1.37E1 nM",0.107
same,CD142/Tissue Factor,"3C, 1.37E1 nM",0.109
same,CXCL8/IL-8,"3C, 1.37E1 nM",-0.180
same,CXCL9/MIG,"3C, 1.37E1 nM",-0.010
same,HLA-DR,"3C, 1.37E1 nM",-0.145
same,Proliferation,"3C, 1.37E1 nM",-0.003
same,SRB,"3C, 1.37E1 nM",-0.076
same,CCL2/MCP-1,"3C, 3.33E3 nM",-0.119
same,CD54/ICAM-1,"3C, 3.33E3 nM",-0.027
same,CD62E/E-Selectin,"3C, 3.33E3 nM",0.034
same,CD87/uPAR,"3C, 3.33E3 nM",-0.471
same,CD106/VCAM-1,"3C, 3.33E3 nM",0.069
same,CD141/Thrombomodulin,"3C, 3.33E3 nM",0.129
same,CD142/Tissue Factor,"3C, 3.33E3 nM",0.128
same,CXCL8/IL-8,"3C, 3.33E3 nM",-0.412
same,CXCL9/MIG,"3C, 3.33E3 nM",-0.032
same,HLA-DR,"3C, 3.33E3 nM",-0.242
same,Proliferation,"3C, 3.33E3 nM",-0.090
same,SRB,"3C, 3.33E3 nM",-0.073
same,CCL2/MCP-1,"3C, 3.70E2 nM",-0.153
same,CD54/ICAM-1,"3C, 3.70E2 nM",-0.078
same,CD62E/E-Selectin,"3C, 3.70E2 nM",0.052
same,CD87/uPAR,"3C, 3.70E2 nM",-0.455
same,CD106/VCAM-1,"3C, 3.70E2 nM",0.094
same,CD141/Thrombomodulin,"3C, 3.70E2 nM",0.139
same,CD142/Tissue Factor,"3C, 3.70E2 nM",0.142
same,CXCL8/IL-8,"3C, 3.70E2 nM",-0.363
same,CXCL9/MIG,"3C, 3.70E2 nM",-0.028
same,HLA-DR,"3C, 3.70E2 nM",-0.210
same,Proliferation,"3C, 3.70E2 nM",-0.026
same,SRB,"3C, 3.70E2 nM",-0.097
same,CCL2/MCP-1,"3C, 4.12E1 nM",-0.076
same,CD54/ICAM-1,"3C, 4.12E1 nM",-0.033
same,CD62E/E-Selectin,"3C, 4.12E1 nM",0.032
same,CD87/uPAR,"3C, 4.12E1 nM",-0.415
same,CD106/VCAM-1,"3C, 4.12E1 nM",0.093
same,CD141/Thrombomodulin,"3C, 4.12E1 nM",0.127
same,CD142/Tissue Factor,"3C, 4.12E1 nM",0.136
same,CXCL8/IL-8,"3C, 4.12E1 nM",-0.222
same,CXCL9/MIG,"3C, 4.12E1 nM",-0.007
same,HLA-DR,"3C, 4.12E1 nM",-0.208
same,Proliferation,"3C, 4.12E1 nM",-0.018
same,SRB,"3C, 4.12E1 nM",-0.080
same,CCL2/MCP-1,"3C, 4.57E0 nM",0.026
same,CD54/ICAM-1,"3C, 4.57E0 nM",-0.005
same,CD62E/E-Selectin,"3C, 4.57E0 nM",0.022
same,CD87/uPAR,"3C, 4.57E0 nM",-0.265
same,CD106/VCAM-1,"3C, 4.57E0 nM",0.039
same,CD141/Thrombomodulin,"3C, 4.57E0 nM",0.096
same,CD142/Tissue Factor,"3C, 4.57E0 nM",0.092
same,CXCL8/IL-8,"3C, 4.57E0 nM",-0.109
same,CXCL9/MIG,"3C, 4.57E0 nM",-0.014
same,HLA-DR,"3C, 4.57E0 nM",-0.077
same,Proliferation,"3C, 4.57E0 nM",-0.017
same,SRB,"3C, 4.57E0 nM",-0.052
same,CCL2/MCP-1,"/HDF3CT, 1.00E4 nM",-0.123
same,CD54/ICAM-1,"/HDF3CT, 1.00E4 nM",-0.074
same,CD106/VCAM-1,"/HDF3CT, 1.00E4 nM",0.00544
same,CXCL8/IL-8,"/HDF3CT, 1.00E4 nM",-0.159
same,CXCL9/MIG,"/HDF3CT, 1.00E4 nM",-0.043
same,CXCL10/IP-10,"/HDF3CT, 1.00E4 nM",-0.008
same,Collagen I,"/HDF3CT, 1.00E4 nM",-0.050
same,M-CSF,"/HDF3CT, 1.00E4 nM",-0.035
same,MMP-1,"/HDF3CT, 1.00E4 nM",-0.057
same,PAI-I,"/HDF3CT, 1.00E4 nM",-0.206
same,SRB,"/HDF3CT, 1.00E4 nM",-0.005
same,TIMP-2,"/HDF3CT, 1.00E4 nM",0.00643
same,CCL2/MCP-1,"/HDF3CT, 1.11E3 nM",-0.116
same,CD54/ICAM-1,"/HDF3CT, 1.11E3 nM",-0.059
same,CD106/VCAM-1,"/HDF3CT, 1.11E3 nM",0.008
same,CXCL8/IL-8,"/HDF3CT, 1.11E3 nM",-0.199
same,CXCL9/MIG,"/HDF3CT, 1.11E3 nM",-0.051
same,CXCL10/IP-10,"/HDF3CT, 1.11E3 nM",0.00172
same,Collagen I,"/HDF3CT, 1.11E3 nM",-0.048
same,M-CSF,"/HDF3CT, 1.11E3 nM",-0.052
same,MMP-1,"/HDF3CT, 1.11E3 nM",-0.043
same,PAI-I,"/HDF3CT, 1.11E3 nM",-0.122
same,SRB,"/HDF3CT, 1.11E3 nM",0.010
same,TIMP-2,"/HDF3CT, 1.11E3 nM",0.028
same,CCL2/MCP-1,"/HDF3CT, 1.23E2 nM",-0.004
same,CD54/ICAM-1,"/HDF3CT, 1.23E2 nM",-0.048
same,CD106/VCAM-1,"/HDF3CT, 1.23E2 nM",0.017
same,CXCL8/IL-8,"/HDF3CT, 1.23E2 nM",-0.167
same,CXCL9/MIG,"/HDF3CT, 1.23E2 nM",-0.040
same,CXCL10/IP-10,"/HDF3CT, 1.23E2 nM",0.011
same,Collagen I,"/HDF3CT, 1.23E2 nM",-0.027
same,M-CSF,"/HDF3CT, 1.23E2 nM",-0.051
same,MMP-1,"/HDF3CT, 1.23E2 nM",0.00166
same,PAI-I,"/HDF3CT, 1.23E2 nM",-0.00646
same,SRB,"/HDF3CT, 1.23E2 nM",0.00373
same,TIMP-2,"/HDF3CT, 1.23E2 nM",0.061
same,CCL2/MCP-1,"/HDF3CT, 1.37E1 nM",0.037
same,CD54/ICAM-1,"/HDF3CT, 1.37E1 nM",-0.040
same,CD106/VCAM-1,"/HDF3CT, 1.37E1 nM",0.019
same,CXCL8/IL-8,"/HDF3CT, 1.37E1 nM",-0.056
same,CXCL9/MIG,"/HDF3CT, 1.37E1 nM",0.00152
same,CXCL10/IP-10,"/HDF3CT, 1.37E1 nM",0.022
same,Collagen I,"/HDF3CT, 1.37E1 nM",-0.019
same,M-CSF,"/HDF3CT, 1.37E1 nM",-0.071
same,MMP-1,"/HDF3CT, 1.37E1 nM",0.083
same,PAI-I,"/HDF3CT, 1.37E1 nM",0.023
same,SRB,"/HDF3CT, 1.37E1 nM",0.004
same,TIMP-2,"/HDF3CT, 1.37E1 nM",0.069
same,CCL2/MCP-1,"/HDF3CT, 3.33E3 nM",-0.101
same,CD54/ICAM-1,"/HDF3CT, 3.33E3 nM",-0.068
same,CD106/VCAM-1,"/HDF3CT, 3.33E3 nM",0.005
same,CXCL8/IL-8,"/HDF3CT, 3.33E3 nM",-0.189
same,CXCL9/MIG,"/HDF3CT, 3.33E3 nM",-0.053
same,CXCL10/IP-10,"/HDF3CT, 3.33E3 nM",0.002
same,Collagen I,"/HDF3CT, 3.33E3 nM",-0.071
same,M-CSF,"/HDF3CT, 3.33E3 nM",-0.054
same,MMP-1,"/HDF3CT, 3.33E3 nM",-0.042
same,PAI-I,"/HDF3CT, 3.33E3 nM",-0.184
same,SRB,"/HDF3CT, 3.33E3 nM",0.008
same,TIMP-2,"/HDF3CT, 3.33E3 nM",0.012
same,CCL2/MCP-1,"/HDF3CT, 3.70E2 nM",-0.041
same,CD54/ICAM-1,"/HDF3CT, 3.70E2 nM",-0.059
same,CD106/VCAM-1,"/HDF3CT, 3.70E2 nM",0.017
same,CXCL8/IL-8,"/HDF3CT, 3.70E2 nM",-0.180
same,CXCL9/MIG,"/HDF3CT, 3.70E2 nM",-0.046
same,CXCL10/IP-10,"/HDF3CT, 3.70E2 nM",0.00747
same,Collagen I,"/HDF3CT, 3.70E2 nM",-0.040
